Test results taken from ChEMBL document CHEMBL5465560, “Selectivity Literature for EUbOPEN Chemogenomic Library” (2024).

Tests used:
[1] = target: Proto-oncogene tyrosine-protein kinase Src (Homo sapiens, UniProt P12931); assay: Selectivity interaction (Kinase panel (Z-LYTE Assay)) EUB0001632a SRC; settings: at 10 µM
[2] = target: T1, Serine/threonine-protein kinase tousled-like 1 (Homo sapiens) (UniProt Q9UKI8); assay: Selectivity interaction (KinomeScan (DiscoverX)) EUB0000666a TLK1; settings: at 10 µM
T1 sequence (whole entry): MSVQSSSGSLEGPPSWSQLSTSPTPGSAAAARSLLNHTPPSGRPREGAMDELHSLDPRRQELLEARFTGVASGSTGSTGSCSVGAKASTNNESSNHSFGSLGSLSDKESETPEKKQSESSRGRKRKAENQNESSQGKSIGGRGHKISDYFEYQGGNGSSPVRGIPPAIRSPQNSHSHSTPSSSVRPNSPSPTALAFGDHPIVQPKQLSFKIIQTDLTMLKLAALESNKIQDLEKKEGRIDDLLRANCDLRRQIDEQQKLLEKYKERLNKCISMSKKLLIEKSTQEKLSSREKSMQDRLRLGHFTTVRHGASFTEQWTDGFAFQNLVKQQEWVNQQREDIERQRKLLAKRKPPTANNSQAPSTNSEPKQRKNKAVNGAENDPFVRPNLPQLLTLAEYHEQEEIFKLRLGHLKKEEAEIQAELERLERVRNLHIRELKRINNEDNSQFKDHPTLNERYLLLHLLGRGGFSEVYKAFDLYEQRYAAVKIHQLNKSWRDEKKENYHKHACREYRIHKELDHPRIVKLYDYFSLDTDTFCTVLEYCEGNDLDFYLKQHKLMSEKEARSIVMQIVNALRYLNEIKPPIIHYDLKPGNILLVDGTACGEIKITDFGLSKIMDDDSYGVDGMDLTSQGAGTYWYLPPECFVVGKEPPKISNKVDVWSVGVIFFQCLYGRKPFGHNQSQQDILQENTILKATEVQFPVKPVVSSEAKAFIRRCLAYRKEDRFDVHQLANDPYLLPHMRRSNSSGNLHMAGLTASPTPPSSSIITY

[3] = target: Serine/threonine-protein kinase SBK1 (Homo sapiens) (UniProt Q52WX2); assay: Selectivity interaction (KinomeScan (DiscoverX)) EUB0000666a SBK1; settings: at 10 µM
[4] = target: Fibroblast growth factor receptor 2 (Homo sapiens) (UniProt P21802); assay: Selectivity interaction (KinomeScan (DiscoverX)) EUB0001049a FGFR2; settings: at 1 µM
[5] = target: T2, Serine/threonine-protein kinase D2 (Homo sapiens) (UniProt Q9BZL6); assay: Selectivity interaction (ProQinase) EUB0000171b PRKD2
T2 sequence (whole entry): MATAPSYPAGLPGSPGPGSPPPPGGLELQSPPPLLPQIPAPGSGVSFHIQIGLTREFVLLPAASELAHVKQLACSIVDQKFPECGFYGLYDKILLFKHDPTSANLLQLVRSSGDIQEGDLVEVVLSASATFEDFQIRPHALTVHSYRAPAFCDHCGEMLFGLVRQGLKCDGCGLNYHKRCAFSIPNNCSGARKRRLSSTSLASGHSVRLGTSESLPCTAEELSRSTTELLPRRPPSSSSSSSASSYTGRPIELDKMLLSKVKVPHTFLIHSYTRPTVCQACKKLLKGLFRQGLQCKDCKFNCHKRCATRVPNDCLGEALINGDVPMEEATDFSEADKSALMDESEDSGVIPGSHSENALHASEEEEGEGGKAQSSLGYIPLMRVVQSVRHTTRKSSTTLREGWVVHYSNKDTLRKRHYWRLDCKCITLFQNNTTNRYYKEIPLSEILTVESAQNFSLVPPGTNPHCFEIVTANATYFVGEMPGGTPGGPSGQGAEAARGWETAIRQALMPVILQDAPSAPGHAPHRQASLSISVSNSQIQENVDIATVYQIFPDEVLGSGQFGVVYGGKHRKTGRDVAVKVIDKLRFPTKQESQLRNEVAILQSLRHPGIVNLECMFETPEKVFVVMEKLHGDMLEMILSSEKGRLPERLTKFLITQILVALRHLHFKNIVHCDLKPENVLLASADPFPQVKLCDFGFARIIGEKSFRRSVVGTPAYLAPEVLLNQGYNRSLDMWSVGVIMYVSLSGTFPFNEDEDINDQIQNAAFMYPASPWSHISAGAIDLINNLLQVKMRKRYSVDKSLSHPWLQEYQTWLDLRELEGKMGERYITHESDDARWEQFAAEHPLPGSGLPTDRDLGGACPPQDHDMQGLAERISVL

[6] = target: SRSF protein kinase 3 (Homo sapiens) (UniProt Q9UPE1); assay: Selectivity interaction (KinomeScan (DiscoverX)) EUB0000618a SRPK3; settings: at 10 µM
[7] = target: T3, Scaffold protein ILK (Homo sapiens) (UniProt Q13418); assay: Selectivity interaction (ActivX KiNativ screen (kinase selectivity in THP-1 cell lysates)) EUB0000639a ILK; type: subcellular; settings: lysate, at 0.04 µM
T3 sequence (whole entry): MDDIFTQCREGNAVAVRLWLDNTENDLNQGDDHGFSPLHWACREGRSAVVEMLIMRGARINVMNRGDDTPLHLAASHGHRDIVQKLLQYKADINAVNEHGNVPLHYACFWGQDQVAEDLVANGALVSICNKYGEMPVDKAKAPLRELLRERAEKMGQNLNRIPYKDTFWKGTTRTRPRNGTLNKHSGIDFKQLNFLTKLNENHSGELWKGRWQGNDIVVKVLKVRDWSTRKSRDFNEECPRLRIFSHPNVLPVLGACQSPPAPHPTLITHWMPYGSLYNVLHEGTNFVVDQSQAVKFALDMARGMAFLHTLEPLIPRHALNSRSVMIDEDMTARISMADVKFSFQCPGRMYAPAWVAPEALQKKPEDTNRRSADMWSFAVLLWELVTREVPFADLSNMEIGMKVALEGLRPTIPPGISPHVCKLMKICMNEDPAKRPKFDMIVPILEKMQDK

Chain of Fibroblast growth factor receptor 2 (Homo sapiens) (P21802 22-821 limits assumed): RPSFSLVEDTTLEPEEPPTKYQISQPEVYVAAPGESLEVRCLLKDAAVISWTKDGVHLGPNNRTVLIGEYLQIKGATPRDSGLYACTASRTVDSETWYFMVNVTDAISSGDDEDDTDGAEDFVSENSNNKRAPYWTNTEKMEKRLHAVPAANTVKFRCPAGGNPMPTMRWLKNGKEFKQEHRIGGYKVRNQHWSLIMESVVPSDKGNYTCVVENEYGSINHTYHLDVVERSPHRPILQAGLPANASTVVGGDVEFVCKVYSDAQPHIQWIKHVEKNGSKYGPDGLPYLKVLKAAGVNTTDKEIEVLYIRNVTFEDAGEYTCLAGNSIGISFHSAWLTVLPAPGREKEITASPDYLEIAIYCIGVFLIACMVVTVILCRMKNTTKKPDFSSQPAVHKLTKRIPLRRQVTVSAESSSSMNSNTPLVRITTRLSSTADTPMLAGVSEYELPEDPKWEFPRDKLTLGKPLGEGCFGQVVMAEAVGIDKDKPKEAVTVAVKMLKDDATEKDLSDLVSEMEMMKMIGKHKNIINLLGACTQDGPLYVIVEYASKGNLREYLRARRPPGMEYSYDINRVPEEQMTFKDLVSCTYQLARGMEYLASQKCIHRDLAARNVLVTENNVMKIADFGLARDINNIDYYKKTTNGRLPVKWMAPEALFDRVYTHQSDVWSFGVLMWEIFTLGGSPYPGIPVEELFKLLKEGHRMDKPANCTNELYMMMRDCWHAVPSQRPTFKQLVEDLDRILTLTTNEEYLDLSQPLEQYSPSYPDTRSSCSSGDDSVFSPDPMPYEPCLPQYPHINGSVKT
Chain of Proto-oncogene tyrosine-protein kinase Src (P12931 2-536 limits assumed): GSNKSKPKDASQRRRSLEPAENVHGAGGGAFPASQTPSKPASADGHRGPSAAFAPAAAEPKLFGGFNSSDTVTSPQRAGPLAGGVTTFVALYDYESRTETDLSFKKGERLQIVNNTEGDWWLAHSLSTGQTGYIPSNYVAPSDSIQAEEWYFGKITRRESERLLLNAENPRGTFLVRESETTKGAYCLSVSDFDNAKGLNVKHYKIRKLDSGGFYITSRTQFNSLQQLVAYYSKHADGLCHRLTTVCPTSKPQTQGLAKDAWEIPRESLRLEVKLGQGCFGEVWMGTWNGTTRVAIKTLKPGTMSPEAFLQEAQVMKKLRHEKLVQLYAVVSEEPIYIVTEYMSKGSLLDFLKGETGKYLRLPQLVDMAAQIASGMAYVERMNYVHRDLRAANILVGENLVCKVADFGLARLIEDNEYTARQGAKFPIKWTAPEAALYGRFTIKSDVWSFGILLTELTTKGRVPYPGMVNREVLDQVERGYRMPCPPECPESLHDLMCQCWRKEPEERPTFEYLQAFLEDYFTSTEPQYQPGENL
Chain of SRSF protein kinase 3 (Homo sapiens) (Q9UPE1 whole entry): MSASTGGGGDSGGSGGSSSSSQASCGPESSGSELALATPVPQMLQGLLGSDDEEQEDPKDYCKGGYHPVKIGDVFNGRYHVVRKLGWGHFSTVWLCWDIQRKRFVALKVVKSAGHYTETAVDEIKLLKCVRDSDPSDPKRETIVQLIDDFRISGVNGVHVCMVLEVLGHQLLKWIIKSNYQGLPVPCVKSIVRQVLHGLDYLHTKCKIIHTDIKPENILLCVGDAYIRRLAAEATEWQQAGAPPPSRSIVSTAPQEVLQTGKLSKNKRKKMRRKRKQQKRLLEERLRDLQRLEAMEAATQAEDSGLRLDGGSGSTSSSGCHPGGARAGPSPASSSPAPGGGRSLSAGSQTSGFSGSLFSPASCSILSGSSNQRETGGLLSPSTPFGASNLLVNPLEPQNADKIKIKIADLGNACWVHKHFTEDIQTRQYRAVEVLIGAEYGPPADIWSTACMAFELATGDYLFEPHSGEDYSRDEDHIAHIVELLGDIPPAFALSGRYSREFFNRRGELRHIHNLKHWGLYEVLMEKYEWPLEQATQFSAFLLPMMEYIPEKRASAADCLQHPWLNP
Chain of Serine/threonine-protein kinase SBK1 (Homo sapiens) (Q52WX2 whole entry): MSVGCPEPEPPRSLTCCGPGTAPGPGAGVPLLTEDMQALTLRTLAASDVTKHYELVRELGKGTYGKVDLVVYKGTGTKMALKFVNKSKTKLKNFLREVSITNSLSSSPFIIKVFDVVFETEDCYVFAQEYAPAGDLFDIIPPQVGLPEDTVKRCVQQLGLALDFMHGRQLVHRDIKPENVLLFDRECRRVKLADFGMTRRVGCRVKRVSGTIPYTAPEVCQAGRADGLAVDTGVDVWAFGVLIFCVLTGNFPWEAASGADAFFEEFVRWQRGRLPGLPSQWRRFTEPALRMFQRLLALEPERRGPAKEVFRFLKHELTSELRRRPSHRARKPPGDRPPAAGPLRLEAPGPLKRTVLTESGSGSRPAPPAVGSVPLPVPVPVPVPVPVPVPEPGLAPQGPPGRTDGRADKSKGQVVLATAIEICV

`Cn1cc(-n2cnc3c(NCc4nc5cc(Cl)c(Cl)cc5[nH]4)nc(N4CCOCC4)nc32)cn1` was tested, and the % of control [1] was 6.05%.

`O=C(NOC[C@H](O)CO)c1ccc(F)c(F)c1Nc1ccc(I)cc1F` was tested, and the % of control [2] was 89% and the % of control [3] was 100%.

In the case of `COc1cc(Nc2nc(C)cc(-c3cnn4nc(OC)ccc34)n2)cc(C(F)(F)F)c1`, the % of control [4] is reported as 90%.

`C=CC(=O)Nc1cccc(C(=O)Nc2ccc(Nc3cc(-c4[nH]c(SC)nc4C)ccn3)cc2)c1` showed a % of control ([5]; at 1 µM) of 69% and a % of control ([5]; at 5 µM) of 43%.

Work on `O[C@H]1CC[C@H](Nc2ncc3nc(Nc4c(F)cc(F)cc4F)n([C@H]4CCOC4)c3n2)CC1` yielded a % of control [6] of 92%.

Compound `CC[C@@H]1[C@H](F)C(=O)N[C@@H]1COc1nccc2cc(C(N)=O)c(OC)cc12` [ZIMLOVISERTIB] has a % of inhibition [7] of -18.4%.
